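A five-concentration, 48-hour dose response in 96-well plates underlies each endpoint, interpolated linearly between surrounding concentrations. GI50 is the concentration that inhibits growth by half. TGI denotes the concentration required for complete inhibition of growth.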
What was measured:
Assay in all cases: NCI-60 cell line screen, 48 h
[1] = system: UO-31 renal
[2] = system: LOX IMVI melanoma
[3] = system: HL-60(TB) leukemia
[4] = system: HOP-92 NSCLC
[5] = system: U251 CNS
[6] = system: HCT-116 colon
[7] = system: SF-268 CNS
[8] = system: SF-539 CNS
[9] = system: BT-549 breast
[10] = system: MDA-MB-435
[11] = system: SR leukemia
[12] = system: SK-MEL-2 melanoma
[13] = system: NCI-H522 lung
[14] = system: OVCAR-4 ovarian
[15] = system: KM12 colon
[16] = system: NCI-H226 lung
[17] = system: 786-0 renal
[18] = system: SK-MEL-28 melanoma
[19] = system: PC-3 prostate
[20] = system: CAKI-1 renal
[21] = system: EKVX NSCLC
[22] = system: UACC-257 melanoma
[23] = system: COLO 205 colon
[24] = system: M14 melanoma
[25] = system: HS 578T breast
[26] = system: HOP-62 NSCLC
[27] = system: A498 renal
[28] = system: HCT-15 colon
[29] = system: RPMI-8226 leukemia

Q: Which results are given for `O=C(CCCCCCN1CC(=O)N2[C@@H](c3cccc(Br)c3)c3[nH]c4ccccc4c3C[C@H]2C1=O)NO`?
A: GI50 [1]: 3.3 µM; TGI [1]: > 16.7 µM; GI50 [2]: 0.203 µM; TGI [2]: 0.431 µM; GI50 [3]: 1.2 µM; TGI [3]: 6.29 µM; GI50 [4]: 1.84 µM; TGI [4]: 5.78 µM; GI50 [5]: 2.78 µM; TGI [5]: 10.7 µM; GI50 [6]: 1.05 µM; TGI [6]: 6.46 µM; GI50 [7]: 3.44 µM; TGI [7]: 9.8 µM; GI50 [8]: 2.89 µM; TGI [8]: 10.5 µM; GI50 [9]: 3.81 µM; TGI [9]: 16.1 µM; GI50 [10]: 2.27 µM; TGI [10]: 7.29 µM; GI50 [11]: 0.554 µM; TGI [11]: 8.71 µM; GI50 [12]: 2.77 µM; TGI [12]: 12.7 µM; GI50 [13]: 0.8 µM; TGI [13]: 5.77 µM; GI50 [14]: 3.17 µM; TGI [14]: > 16.7 µM; GI50 [15]: 2.95 µM; TGI [15]: 6.65 µM; GI50 [16]: 5.01 µM; TGI [16]: > 16.7 µM; GI50 [17]: 3.86 µM; TGI [17]: 11.1 µM; GI50 [18]: 2.51 µM; TGI [18]: 10.5 µM; GI50 [19]: 2.23 µM; TGI [19]: > 16.7 µM; GI50 [20]: 2.6 µM; TGI [20]: 15 µM; GI50 [21]: 4.33 µM; TGI [21]: > 16.7 µM; GI50 [22]: 2.37 µM; TGI [22]: > 16.7 µM; GI50 [23]: 2.28 µM; TGI [23]: 8.36 µM; GI50 [24]: 2.81 µM; TGI [24]: 14.3 µM; GI50 [25]: 2.25 µM; TGI [25]: 12.1 µM; GI50 [26]: 2.51 µM; TGI [26]: 7.59 µM; GI50 [27]: 2.75 µM; TGI [27]: 6.31 µM; GI50 [28]: 13 µM; TGI [28]: > 16.7 µM; GI50 [29]: 0.982 µM

Reference: PubChem BioAssay (NCI)
